Measurements published in US10611797B2, “Peptide having anticancer activity, and pharmaceutical composition and dietary supplement composition for preventing and treating cancer, both of which contain same as active ingredient” (IUCF-HYU (INDUSTRY-UNIVERSITY COOPERATION FOUNDATION …, priority 2015, dated 2020).
No end group written: not given here. *: point of attachment. Biotin = O=C1N[C@H]2[C@H](CS[C@H]2CCCCC(=O)*)N1

Legend:
[1] = system: human embryonic kidney cancer cell line (293T); test: MTT cell viability, 293T; format: cell-based; conditions: 0-10 μM, 24-96 h
Method: (§1) Liver cancer cell lines (HepG2, Hep3B) were inoculated into 96-well plates at a density of 3000 cells/well, and then 50 μl of culture solution was added thereto. Cells were cultured at 37° C. and 5% CO2 for 1 h. […] Cells were cultured at 37° C. and 5% CO2 for 24, 48, 72, and 96 h. After completion of the culture, the remaining culture solution was removed from the well plates, the cultures were diluted with MTT solution (3-(4,5-dimethylthiazol-2-yl)-2,5-diphenyltetrazole bromide) to a final density of 500 μg/ml, and cells were cultured at 37° C. and 5% CO2 for 3 h. The remaining MTT solution was removed and 150 μl of dimethyl sulfoxide (DMSO) was added. The reaction was carried out at room temperature for 20 min. After completion of the reaction, absorbance was measured using a microplate reader.

[2] = system: cancer cell lines (HepG2, Hep3B, 293T, MCF-7, MDA-MB-231, K562, HEL, HL60, U251, U373MG, U87MG); test: Microscopic observation of growth inhibition and apoptosis, cancer cell lines; format: cell-based, human; conditions: 2 μM, 48 h
Method: (§2) Liver cancer cell lines (HepG2, Hep3B), a human embryonic kidney cell line (293T), breast cancer cell lines (MCF-7, MDA-MB-231), blood tumor cell lines (K562, HEL, HL60), glioblastoma cell lines (U251, U373MG, U87MG), a mammary epithelial cell line (MCF10A), a lung epithelial cell line (BEAS2B), human mesenchymal stem cells (hMSCs), and mouse primary T cells (resting and activated T cells) were inoculated into 96-well plates at a density of 3,000 cells/well, supplemented with 50 μl of culture solution, and cultured at 37° C. and 5% CO2 for 1 h. […] After completion of the culture, cells were observed under an inverted phase contrast microscope and their morphological changes were imaged.

[3] = system: BEAS2B and MCF10A normal epithelial cell lines
Method: as §1

[4] = system: liver cancer cell lines (HepG2, Hep3B); test: MTT cell viability, liver cancer cell lines; format: cell-based, human; conditions: 0-10 μM, 24-96 h
Method: as §1

[5] = system: human embryonic stem cells (hESCs, H9)
From the text: MEF cells labeled with rhodamine were often used to distinguish them from hESC-derived cells.

[6] = system: human blood cancer cell lines (K562, HEL, HL60); test: MTT cell viability, human blood cancer cell lines; format: cell-based; conditions: 0-10 μM, 24-96 h
Method: as §1

[7] = system: glioblastoma cell lines (U251, U87MG, U343); test: MTT cell viability, glioblastoma cell lines; format: cell-based, human; conditions: 0-10 μM, 24-96 h
Method: as §1

[8] = system: normal cell lines (MCF10A, BEAS2B, hMSCs, mouse primary T cells)
Method: as §2

CP2c [9] = test: Luciferase reporter assay of CP2c transcriptional activity in 293T cells; format: cell-based, human; conditions: 2 μM, 48 h, wild-type CP2c binding sites, compared with FQI1
Method: 293T cells were inoculated into a 12-well plate at a density of 1×10^5 cells/well. 12 h after inoculation, cells were transfected with combinations of a reporter vector (the wild-type reporter links the enhancer sequence of the GATA-1 gene including twice repeated CP2c-binding sites to the upstream of the luciferase gene and Mut 1/3, Mut 2/4, and Mut 1-4 reporters cause mutations of the CP2c binding sites present in the enhancer sequence) and various Flag-CP2c, HA-CP2b, and HA-PIAS1 expression vectors by using the effectene method. After 1-h culture, cells were treated with FQI1, Peptide 5C, and Peptide 5-2C at concentrations of 2 μM, followed by 48-h culture. Cells were harvested and lysed in 250 μl of passive cell lysis buffer (Promega) to obtain an extract. 20 μl of the cell extract and a dual-luciferase assay kit (Promega) were used to measure the activity of the labeled luciferase gene in GLOMAX (Promega) (the expression of each expression vector was confirmed by Western blotting).

[10] = system: breast cancer cell lines (MCF7, MDA-MB-231); test: MTT cell viability, breast cancer cell lines; format: cell-based, human; conditions: 0-10 μM, 24-96 h
Method: as §1

CP2c [11] = molecular target: T1, CP2c (Mus musculus, UniProt Q9ERA0); conditions: Kim et al., Analytical Biochemistry 2013; cited from earlier work
T1 construct: 5 μg of the nuclear extract and an [α-32p] dCTP-labeled DNA probe; endogenous in cells; host or cells: MEL (murine erythroid leukemia) cells, HMBA-differentiated, nuclear extract
T1 sequence (Q9ERA0 1-502): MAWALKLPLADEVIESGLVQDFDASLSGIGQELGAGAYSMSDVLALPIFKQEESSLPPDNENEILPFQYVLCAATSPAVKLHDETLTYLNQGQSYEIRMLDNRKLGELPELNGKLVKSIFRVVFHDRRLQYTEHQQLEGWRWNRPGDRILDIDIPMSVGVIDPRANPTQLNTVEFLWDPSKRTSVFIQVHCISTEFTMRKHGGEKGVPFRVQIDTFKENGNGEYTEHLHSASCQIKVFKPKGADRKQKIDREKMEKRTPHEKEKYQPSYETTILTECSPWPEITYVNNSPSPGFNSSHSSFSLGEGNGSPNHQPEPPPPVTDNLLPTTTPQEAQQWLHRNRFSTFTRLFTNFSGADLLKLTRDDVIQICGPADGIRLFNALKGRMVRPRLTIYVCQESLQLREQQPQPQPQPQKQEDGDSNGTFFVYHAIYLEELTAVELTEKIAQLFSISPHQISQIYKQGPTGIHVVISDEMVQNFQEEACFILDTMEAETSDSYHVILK

CP2c [12] = molecular target: T1, CP2c; test: DNA immunoprecipitation (DIP) assay of CP2c-DNA binding; conditions: 0.2, 0.5, and 1 μg peptide; MEL nuclear extract; α-globin promoter probe
Method: To analyze whether the five peptides identified in Example 1.1 bind to CP2c in cells to affect the ability of CP2c to bind to DNA, DNA immunoprecipitation (DIP) assay was performed as disclosed in another preceding research conducted by the present inventors (Kim et al., A DNA immunoprecipitation assay used in quantitative detection of in vitro DNA-protein complex binding, Analytical Biochemistry. 2013; 441: 147-151).
In summary, the differentiation of a murine erythroid leukemia (MEL) cell line was induced by treatment with 5 mM hexamethylene bisacetamide (HMBA) and, on day 2 after differentiation, a cellular nuclear extract was separated. […]
Subsequently, 5 μg of the nuclear extract and an [α-32p] dCTP-labeled DNA probe (a sequence corresponding to the common CP2c binding site present in mouse α-globin promoter and between −156 and −124 in the start codon of the α-globin gene, see the paper of Kim et al. for details of the sequence) were allowed to react with a binding buffer (4% glycerol, 10 mM Tris-HCl, 1 mM DTT, 1 mM EDTA, and 0.1% NP-40) for 15 min, and gradually increasing amounts (0.2, 0.5, and 1 μg) of the identified CP2c binding peptides (Peptide 5, Peptide 8, Peptide 13, Peptide 21, and Peptide 31) were added thereto. […] The CP2c protein was removed from the DNA probe and the remaining amount of the DNA probe was measured using a scintillation counter. […]

[13] = system: MDA-MB-231 cell line and MCF7 cell line; test: MTT assay of Peptide 5-2CB; format: cell-based, human
From the text: To support this assumption, a CP2c protein region with which Peptide 5-2C interacts and amino acids in the region directly binding to Peptide 5-2C need to be identified. Thus, an attempt was made to obtain mutant CP2c proteins in which polar amino acids present in the CP2c region binding with Peptide 5 shown in FIG. 1 were substituted with Ala and analyze the binding of the mutant CP2c proteins with Peptide 5-2C by enzyme-linked immunosorbent assay (ELISA). To facilitate this analysis, Peptide 5-2CB was synthesized in which biotin tag is bonded to the C-terminal Pro residue of Peptide 5-2C. To confirm whether Peptide 5-2CB induces cancer cell-specific growth interruption and apoptosis, like Peptide 5-2C, MTT assay was conducted on two different batches of Peptide 5-2CB in MDA-MB-231 cell line and MCF7 cell line by the same method as in Example 5.1. IC50 values were also calculated from the results of MTT assay. To obtain 19 mutant CP2c proteins in which polar amino acids present in the CP2c region binding with Peptide 5-2C were substituted with Ala, oligonucleotides having sequences encoding the corresponding mutant amino acids were synthesized and site-directed mutagenesis was carried out. The base sequences encoding the mutant CP2c genes were cloned into the pGEX4 vector and mutant GST-fusion CP2c proteins were purified using beads bound with antibody against GST-tag. […]

GST-CP2c wild type = molecular target: T2, GST-CP2c wild type (UniProt Q9ERA0 Q9ERA0:1-502); test: pulldown; DNA-IP, values only in figure; conditions: tags: GST fusion, E. coli; label: 32P
T2 sequence: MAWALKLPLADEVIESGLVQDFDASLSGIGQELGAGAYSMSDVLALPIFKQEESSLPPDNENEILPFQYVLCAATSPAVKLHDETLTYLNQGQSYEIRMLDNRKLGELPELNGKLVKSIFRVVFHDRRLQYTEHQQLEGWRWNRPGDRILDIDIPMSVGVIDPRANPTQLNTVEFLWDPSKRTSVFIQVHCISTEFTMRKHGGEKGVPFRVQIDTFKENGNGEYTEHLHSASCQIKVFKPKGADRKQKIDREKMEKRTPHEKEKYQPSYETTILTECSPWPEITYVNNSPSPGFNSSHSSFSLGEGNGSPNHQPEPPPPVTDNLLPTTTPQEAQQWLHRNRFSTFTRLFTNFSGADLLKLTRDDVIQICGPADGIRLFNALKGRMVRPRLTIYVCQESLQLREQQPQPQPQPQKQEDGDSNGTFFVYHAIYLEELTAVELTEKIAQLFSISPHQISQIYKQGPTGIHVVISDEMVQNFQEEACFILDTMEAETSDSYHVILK

In the case of “Ac-HERRESNYPQRPCRGCRGDKGPDC-Amide (Ac-HERRESNYPQRPCRGCRGDKGPDC-NH2; ends and bridges not checked) [Peptide 5C]”, the “relative viability (MTT), 293T, compared with FQI1” value [1] is reported as “inhibited the growth of the glioblastoma cell lines and induced apoptosis similarly to FQI1”, the “growth inhibition and apoptosis induction of cancer cell lines (microscopy)” value [2] is reported as “specifically inhibited the growth of the cancer cell lines and induced apoptosis” and the “growth inhibition and apoptosis induction of normal control cell lines (IC50 calculation)” value [3] is reported as “inhibited cell growth and induced apoptosis, similarly to the treatment with Peptide 5C”. The “relative viability (MTT), liver cancer cell lines, compared with FQI1” value [4] was “more effectively inhibited the growth of the liver cancer cell lines and induced apoptosis than FQI1”, the “cytotoxicity (MTT) in hESCs” value [5] was “slight cytotoxicity at high concentrations” and the “relative viability (MTT), K562, HEL, HL60, compared with FQI1” value [6] was “slightly effectively inhibited the growth of the glioblastoma cell lines and induced apoptosis compared to FQI1”. For the same molecule, the “relative viability (MTT), glioblastoma cell lines, compared with FQI1” value [7] was “more effectively inhibited the growth of the glioblastoma cell lines and induced apoptosis than FQI1”, the “effect on normal cell lines (microscopy)” value [8] was “without substantially affecting the normal cell lines” and the “CP2c-mediated transcriptional activity (luciferase reporter)” value (CP2c [9]) was “effectively inhibit CP2c-mediated transcriptional activity compared to FQI1”. For the same molecule, the “relative viability (MTT), breast cancer cell lines, compared with FQI1” value [10] was “more effectively inhibited the growth of the breast cancer cell lines and induced apoptosis than FQI1”.

In the case of HERRESNYPQRP [Peptide 5], the “inhibition of CP2c-DNA binding (DNA immunoprecipitation)” value (CP2c [11]) is listed as “inhibits CP2c-DNA binding in a concentration-dependent manner” and the “inhibition of CP2c-DNA binding (DIP assay)” value (CP2c [12]) is listed as “specifically inhibited the CP2c-DNA binding in a concentration-dependent manner”.

In the case of “Peptide 5-2CB: biotin-tagged Lys linked to the C-terminal Cys residue of Peptide 5-2C (NYPQRPCRGDKGPDCK(Biotin); not fully specified; cysteine pairing not given here)”, the “IC50 compared with Peptide 5-2C” value ([13]; 48 h) is reported as “had IC50 values similar to Peptide 5-2C” and the “cancer cell growth interruption and apoptosis (MTT)” value ([13]; two batches, increasing concentrations) is reported as “induced cancer cell-specific cell growth interruption and apoptosis”.

B1: alpha-globin promoter CP2c site probe (dsDNA)
DNA 1: GATCCCAAGTTTTACTCGGTAGAGCAAGCACAAACCAGG
DNA 2: CCTGGTTTGTGCTTGCTCTACCGAGTAAAACTTGGGATC
B1: binds (GST-CP2c wild type).
